The text below walks through data of US20010025105A1, “Certain substituted 1-aryl-3-piperazine-1'-yl propanones” (Molecular Geriatarics Corporation, priority 1997, published 2001).

The term zone of inhibition denotes the size of the clear area around the sample on an inoculated plate. Broadly, the IC50 is the concentration that inhibits the measured activity by half.

One assay concerns Candida albicans SRI 523. Kind of assay: Agar disc diffusion assay. The assay is classed as cell-based. To be noted: 240 ug/disc, about 24 hr at 37° C.; for zone of inhibition at 240 µg/disc: Candida albicans, SRI523, read-out: Diameter of the zone of inhibition, C. albicans. The procedure:
(§1) The activity of the compounds is determined using the following assay. The compound is dissolved in DMSO at a concentration of 6 mg/ml and then diluted with water to a final concentration of 3 mg/ml in 50% DMSO (% DMSO was shown not to be inhibitory to the test organisms). An aliquot (0.08 ml) of each drug solution was transferred to filter paper discs (12.7 mm diameter, Scmeicherand Schuell) for use in the agar diffusion assay. The concentration of each drug on the filter paper disc was 240 ug/disc. The test organisms included the following: Gram-positive aerobes (Staphylococcus aureus SRI 1323, Streptococcus pneumoniae SRI 1167); Gram-negative aerobe (Proteus vulgaris SRI 180); and the yeast Candida albicans SRI 523. An agar disc diffusion assay was used to evaluate the antimicrobial activity of the test compounds. Briefly, cultures were prepared from 16-20 hr agar slant cultures by inoculating in physiological saline to a turbidity equivalent to a #0.5 McFarland turbidity standard for the bacteria and a #3 McFarland standard for C. albicans. The surface of Mueller-Hinton agar (15×100 mm plates, mm) were evenly inoculated with each standardized culture using a cotton swab. Filter paper discs containing the drug concentration listed above were then placed on the inoculated agar plates along with a disc containing the solvent used to dissolve each drug. The plates were incubated at 37° C. for about 24 hr and the diameters of the zones of inhibition measured with a vernier caliper. Positive control drugs consisted of streptomycin for use with the bacterial strains and 5-fluorocytosine for use with C. albicans. The positive control drugs were assayed as described above for the compounds of the present invention using the same concentration.
On the technique in general: A growth-free zone around the sample is the usual read-out of agar diffusion tests.

In assay [1] the test system is TG3 immunoreactivity in OKA treated MSN1a cells. Put plainly: MSN1a cell culture model, ELISA with TG3 antibody, okadaic acid treated cells. The assay is classed as cell-based, human. The following applies: 1 μM OKA, 2 hrs at 37° C., read-out: IC50 for inhibition of TG3 immunoreactivity in OKA treated MSN1a cells. The procedure:
This assay can thus be used to determine whether a drug is capable of preventing or intervening in AD by attenuating the production of abnormally phosphorylated paired helical filament epitopes associated with AD. To determine whether a drug is capable of preventing or intervening in AD activity, the MSN1a cells containing tau and associated proteins are treated with OKA capable of greatly increasing immunoreactivity of the MSN1a cells with AD specific monoclonal antibodies. Then, either prior to or concomitantly with OKA treatment, a compound of the present invention is added to the culture. If the compound prevents the induction of the AD epitopes in the MSN1a cells treated with OKA, then it is said to have anti-AD activity. If the AD-specific antibodies are highly reactive with the neuroblastoma cells following OKA treatment in the presence of compound, then the compound is said to be ineffectual against AD.
The MSN1a human neuroblastoma line was subcloned from a population of MSN cells obtained from the laboratory of Dr. Peter Davies (Albert Einstein College of Medicine, New York, N.Y.). Cells were grown and maintained in flasks in RPMI 1640 medium, supplemented with 15% fetal calf serum, 100 U/ml penicillin, 100 U/ml Streptomycin, 0.5 ug/ml fungizone under 7.5% CO2 at 37° C.
Stock solutions of drugs were prepared by dissolving the anhydrous powders to final concentrations of either 10 or 20 mM in 50% aqueous or 100% dimethyl sulfoxide (DMSO), respectively. Working solutions of drugs were prepared by dilution of the stock solutions with Kreb's Ringer in Hepes buffer (KRH) (128 mM NaCl, 5 mM KCl, 2.5 mM CaCl2 1.2 mM MgSO4, 1 mM Na2HPO4, 10 mM dextrose, 20 mM Hepes, pH 7.4). OKA is maintained as a 1 mM stock solution in DMSO prior to dilution to 4 μM in KRH.
MSN cells grown in 225 cm^2 flasks are removed from the incubator, their medium decanted and replaced with 50 ml pre-warmed KRH. The cells are harvested by scraping prior to sedimentation at 1000 rpm for 5 min. The supernatants are discarded and the cell pellets are resuspended, the cells counted and diluted to a density of 2×10^4 cells/[…]. The cells are then plated in a 96 well plate at 50 μl/well and 25 μl of 4 μM OKA and 25 μl of drug are then added to the appropriate wells; the entire 96 well plate is then incubated for 2 hrs at 37° C. Depending on the dilution of drug added, this yields individual wells containing 1 μM OKA, 0-64 μM drug and 2×10^4 cells in 0.26% DMSO in KRH. The incubation is terminated by the addition of 20 μl of 6X extraction buffer and immediate freezing at −80° C. for at least one hr. The 6X extraction buffer contains: 25 mM Tris-HCl, pH 7.6, 150 mM NaCl, 5 mM EDTA, 24 mM β-glycerol phosphate, 10 μg/ml APMSF (4-amidinophenylmethane-sulfonyl flouride), and 2.5 μg/ml each of leupeptin, aprotinin, and pepstatin. The plates are thawed in a 37° C. water bath and 20 μl of cell lysate is added to a replica well in an ELISA plate that already contains 80 μl of coating buffer (15 mM Na2CO3 and 35 mM NaHCO3, pH 9.6). The plates are allowed to coat overnight at 4° C. The plates are washed four times with deionized water and then blocked for 30 min at 37° C. with 200 μl/well pre-warmed 1% bovine serum albumin in 10 mM Tris-HCl, pH 7.4, 150 mM NaCl, 3 mM NaN3 (BSA-TBS). After the blocking solution is removed, 100 μl/well of an appropriate dilution of pre-warmed primary antibody (eg., TG3 or PHF-1) in BSA-TBS is added and incubated at 37° C. for 30 min. Incubation is terninated by washing four times in deionized water at which time 100 μl of an appropriate dilution of pre-warmed secondary antibody (conjugated to alkaline phosphatase) in BSA-TBS is added to each well in the ELISA plate. Incubation is performed for 30 min at 37° C. followed by washing 4 times with deionized water. […] of prewarmed chromogenic substrate (1 mg/mnl p-nitrophenyl phosphate in 10% diethanolamine, 3 mM NaN3, 0.5 mM MgCl2, pH 9.8) is added and the plate incubated for 30 min at 37° C. […]
A general note: An ELISA detects its analyte on a solid surface through an enzyme-linked reagent.

The test system of assay [2] is microtubule cytoskeleton of human CG neuroblastoma cells. Kind of assay: Antimicrotubule activity, tubulin immunofluorescence microscopy. The assay is classed as cell-based. To be noted: 2 hr at 37° C., read-out: Concentration where microtubule destabilization occurs. The procedure: The compounds of the invention according to formula I are effective in destabilizing microtubules, thus are useful in treating certain neoplastic diseases. Indirect immunofluorescence microscopy using the monoclonal antibodies to tubulin is used herein to determine the activity of the compounds of this invention in promoting depolymerization of the microtubule cytoskeleton in cultured cells. The following assay was employed.
Cultured human CG neuroblastoma cells were seeded 1:3 from confluent cultures onto sterile 11×22 mm coverslips in 6 well tissue culture plates 16 hr prior to treatment. The following day, the tissue culture medium is removed and the cells are exposed to various concentrations of compounds of this invention in Krebs Ringer Hepes (KRH) buffer containing a final concentration of 0.5% DMSO as carrier. Incubations were performed at 37° C. in a humidified 5% CO2 atmosphere for 2 hr. After incubation, the cells were fixed in 3% TEM grade formaldehyde in PBS for 45 min at room temperature.
To visualize the effects of the compounds of the invention on the microtubule cytoskeleton, the cells were processed for tubulin immunofluorescence. Briefly, the cells were permeabilized in 0.5% Triton-X 100 in PBS for 5 min. The cells were washed 2× with PBS and aldehydes reduced using 0.5 mg/ml NaBH4 in PBS for 5 min. Subsequently, the cells were blocked for 10 min in 1.5% BSA and 1.5% nonfat dry milk in PBS (blocking solution, BS) for 10 min. The cells were then incubated for 30 min at 37° C. with the monoclonal antibody Tu27B which recognizes b-tubulin (dilution 1:20 in BS). Subsequently, the cells were washed 2× in PBS and once in BS. The cells were then incubated for 30 min at 37° C. with sheep antimouse IgG conjugated to FITC. After incubation, the cells were washed 2× in PBS and once in BS and incubated for 30 min at 37° C. with rabbit antisheep IgG conjugated to FITC. The cells were rinsed in PBS, counterstained with Hoechst 33285 in PBS (1 μg/ml), and rinsed in PBS. The coverslips were mounted in 9:1 glycerol:PBS containing 1 mg/ml p-phenylenediamine and sealed with nail polish.
The cells were viewed using a Jenalumar epifluorescence microscope equipped with the proper filters for Fluorescein Isothiocyanate (FITC) excitation and emission. Lack of effect of a compound is evidenced by the presence of an intact microtubule network in interphase cells, or a mitotic spindle in dividing cells. Antineoplastic compounds of the invention at effective doses result in the disappearance of microtubules in both interphase and mitotic cells.

Assay [3] concerns Streptococcus pneumoniae SRI 1167. Kind of assay: Agar disc diffusion assay. It is filed as cell-based. The following applies: 240 ug/disc, about 24 hr at 37° C., + = zone too large to measure; for zone of inhibition at 240 µg/disc: Streptococcus pneumoniae, SRI1167, read-out: Diameter of the zone of inhibition, S. pneumoniae. The procedure:
as §1

The test system of a further assay is Proteus vulgaris SRI 180. Put plainly: Agar disc diffusion assay. The assay is classed as cell-based. To be noted: 240 ug/disc, about 24 hr at 37° C., 0 = no measurable zone; for zone of inhibition at 240 µg/disc: Proteus vulgaris, SRI180, read-out: Diameter of the zone of inhibition, P. vulgaris. The procedure:
as §1

In assay [4] the test system is Staphylococcus aureus SRI 1323. Kind of assay: Agar disc diffusion assay. The assay is classed as cell-based. The following applies: 240 ug/disc, about 24 hr at 37° C.; for zone of inhibition at 240 µg/disc: Staphylococcus aureus, SRI1323, read-out: Diameter of the zone of inhibition, S. aureus. The procedure:
as §1

Counter-ions that a name gives are not always drawn. Like-named read-outs stand apart in the source and are kept apart here.

For the molecule `Nc1nc(=O)[nH]cc1F` [5-fluorocytosine, reference compound], the zone of inhibition at 240 µg/disc in the assay with Candida albicans SRI 523 was 33.5 mm.

As for `O=C(CCN1CCN(Cc2ccccc2)CC1)c1cc2ccccc2o1` [Example 10, 1-(Benzofur-2″-yl)-3-(4′-benzyl-1′-piperazinyl)-1-propanone dihydrochloride], the concentration for half-maximal inhibition (IC50) in assay [1] (Homo sapiens) amounted to 6 µM. For the same molecule, in assay [2] (Neuroblastoma cell), the minimal effective concentration is 20 µM.

Take `Cl.Cl.O=C(CCN1CCN(Cc2ccccc2)CC1)c1ccc(F)c(Br)c1` [Example 25, 1-(p-Fluoro-m-bromophenyl)-3-(4′-benzyl-1′-piperazinyl)-1-propanone dihydrochloride]: in assay [3], the “Diameter of the zone of inhibition, S. pneumoniae” value was 36.3 mm. Moreover, the “Diameter of the zone of inhibition, P. vulgaris” value in the assay with Proteus vulgaris SRI 180 worked out at 16.0 mm. Further, the “Diameter of the zone of inhibition, C. albicans” value in the assay on Candida albicans SRI 523 turned out to be 26.0 mm. Also, the “Diameter of the zone of inhibition, S. aureus” value in assay [4] came out at 27.5 mm.

On to `Cl.O=C(CCN1CCN(C(=O)c2ccccc2C(F)(F)F)CC1)c1ccccc1F` [Example 43], for which the “Diameter of the zone of inhibition, S. pneumoniae” value in assay [3] is 25.3 mm. The “Diameter of the zone of inhibition, P. vulgaris” value in the assay on Proteus vulgaris SRI 180 was determined as 15.9 mm. In the assay on Candida albicans SRI 523, the “Diameter of the zone of inhibition, C. albicans” value stood at 22.5 mm. Moreover, the “Diameter of the zone of inhibition, S. aureus” value in assay [4] amounted to 17.7 mm.

Consider `Cl.Cl.O=C(CCN1CCN(C(c2ccccc2)c2ccc(Cl)cc2)CC1)c1ccc(Br)s1` (stereo not shown) [Example 78, 1(5″-Bromo-2″-thienyl)-3-[4′-(1′″-p-chlorophenyl-1′″-phenylmethyl)-1′-piperazinyl]-1-propanone dihydrochloride], for which the “Diameter of the zone of inhibition, S. pneumoniae” value in assay [3] was 19.7 mm. Further, the “Diameter of the zone of inhibition, P. vulgaris” value in the assay on Proteus vulgaris SRI 180 worked out at 14.5 mm. Moreover, in the assay on Candida albicans SRI 523, the “Diameter of the zone of inhibition, C. albicans” value was 15.2 mm. The “Diameter of the zone of inhibition, S. aureus” value in assay [4] stood at 16.2 mm.

On to `Cl.Cl.O=C(CCN1CCN(Cc2ccccc2)CC1)c1csc([N+](=O)[O-])c1` [Example 80, 1-(5″-Nitro-3″-thienyl)-3-(4′-benzyl-1′-piperazinyl)-1-propanone dihydrochloride], for which the IC50 in assay [1] worked out at 5.7 µM. Further, the “Diameter of the zone of inhibition, P. vulgaris” value in the assay with Proteus vulgaris SRI 180 came to 13.8 mm. Besides, the “Diameter of the zone of inhibition, C. albicans” value in the assay on Candida albicans SRI 523 is on record as 14.5 mm. Besides, in assay [4], the “Diameter of the zone of inhibition, S. aureus” value amounted to 17.2 mm.

As to `O=C(CCN1CCN(C(=O)c2sc3ccccc3c2Cl)CC1)c1ccc(Br)s1` [Example 86, 1-(5″-Bromo-2″-thienyl)-3-[4′-(3′″-chlorobenzo[b]-2′″-thienoyl)-1′-piperazinyl]-1-propanone dihydrochloride], the zone of inhibition at 240 µg/disc in assay [3] was 19.3 mm; in the assay with Proteus vulgaris SRI 180, 13.9 mm; with Candida albicans SRI 523 it was 17.3 mm; in assay [4] it was 16.2 mm.

As for `Cl.Cl.O=C(CCN1CCN(Cc2ccccc2)CC1)c1cc([N+](=O)[O-])c(Cl)s1` [Example 95, 1-(5″-Chloro-4″-nitro-2″-thienyl)-3-(4′-benzyl-1′-piperazinyl)-1-propanone dihydrochloride], the half-inhibitory concentration (IC50) in assay [1] came out at 2.8 µM. Besides, in assay [2], the minimal effective concentration came out at 20 µM.

For `[H]/N=C(/N)N[C@H]1[C@H](O)[C@@H](O)[C@H](O[C@@H]2O[C@@H](C)[C@](O)(C=O)[C@H]2O[C@@H]2O[C@@H](CO)[C@H](O)[C@@H](O)[C@@H]2NC)[C@@H](N/C(N)=N\[H])[C@@H]1O` [streptomycin, reference compound], the zone of inhibition at 240 µg/disc amounted to 39.8 mm in assay [3], 37.6 mm with Proteus vulgaris SRI 180 and 28.4 mm in assay [4].
